The subject of one data set is H1838 cells. The data set can be described thus: Cell viability assay, H1838 NSCLC cells. The class given is cell-based, Human. To be noted: bortezomib day 1, compound 1 day 2; 72 hours after compound 1 exposure (FIG. 6).
For another data set, the system named is H1703 cells. As to the kind of experiment: Cell Titer-Glo cell viability assay, H1703 NSCLC cells. It counts as cell-based, Human. The following applies: for cells killed: viability 72 hr later. Here is the method: Cells were maintained at 37° C., 5% CO2 atmosphere.
[…] […] Viability was assessed 72 hr later.
Combination Index (CI) was then determined using the median effect analysis software CalcuSyn 2.0 (CalcuSyn, Inc.). A Combination Index greater than 1, equal to 1 or less than 1 indicates antagonism, additivity and synergism, respectively.

Data set [1] is described as follows: Phase 1 clinical investigations, intravenous Compound 1. The class given is in vivo, human. The text has this: Compound 1 was advanced into phase 1 clinical investigations studying patients with refractory hematologic malignancies using two intravenous schedules of administration: weekly for 3 out of every 4 weeks and twice weekly without breaks dosing by one-hour infusion.

[2] abbreviates: bortezomib day 1, compound 1 Day 2, 72 hours after compound 1 exposure (FIG. 4).
Where [3] appears, read: concurrent, one hour on both days 1 and 2, 72 hours after final drug exposure (FIG. 5).

SMILES strings stand for the structures.

The source of these data is patent US20130331357A1, “COMBINATION THERAPY OF HSP90 INHIBITORY COMPOUNDS WITH PROTEASOME INHIBITORS” (SYNTA PHARMACEUTICALS CORP., priority 2011, published 2013).

Protocol for H1838 cells: Human H1703, H1975, H1838 NSCLC cells, U266 multiple myeloma cells, HCT116 colon cancer cells and Detroit562 head and neck cancer cells were purchased from the American Type Culture Collection (Manassas, Va.). H1975, H1703, H1838 and U266 cells were grow in RPMI media, HCT116 cells were grown in McCoy's media and Detroit562 cells were grown in MEM. Fetal bovine serum (10%) was added to all media, along with 2 mM L-glutamine and antibiotics (100 IU/ml penicillin and 100 μg/ml streptomycin) purchased from Sigma Aldrich. Cells were maintained at 37° C., 5% CO2 atmosphere.
Cell viability was measured using the Cell Titer-Glo assay (Promega). In brief, cells were plated in 96-well plates in triplicate at optimal seeding density (determined empirically for each cell line) and incubated at 37° C., 5% CO2 atmosphere for 24 hr prior to the addition of drug or vehicle (0.3% DMSO) to the culture medium. At the end of the assay, Cell Titer-Glow was added to the wells per manufactures recommendation, shaken for two minutes and incubated for 10 minutes at room temperature. Luminescence (0.1 sec) was measured with a Victor II microplate reader (Perkin Elmer) and the resulting data were used to calculate cell viability, normalized to vehicle control.

Consider `CC(C)C[C@H](NC(=O)[C@H](Cc1ccccc1)NC(=O)c1cnccn1)B(O)O` [bortezomib, reference compound], for which the “cell death by microscopy” value in the data set with H1838 cells, with H1703 cells (setting [2]) and in the data set on H1703 cells (setting [3]) was “weak activity” throughout. For the same compound, the cells killed with H1703 cells (bortezomib alone 22 nM, 1 hr exposure Day 1 and Day 2) is listed as 15%; with H1703 cells (bortezomib on its own 15 nM, 8 hr pulse Day 1, washout), 25%.

`CC(C)c1cc(-c2nnc(O)n2-c2ccc3c(ccn3C)c2)c(O)cc1O` [compound 1, 3-(2,4-dihydroxy-5-isopropyl-phenyl)-4-(1-methyl-indol-5-yl)-5-hydroxy-[1,2,4] triazole]: the “cell death by microscopy” value with H1838 cells, in the data set with H1703 cells (setting [2]) and in the data set with H1703 cells (setting [3]) was “weak activity” in each case. Besides, the cells killed with H1703 cells (compound 1 alone 50 nM, 8 hr pulse, washout) was found to be 10%; with H1703 cells (compound 1 alone 74 nM, 1 hr exposure Day 1 and Day 2), 15%. For the same compound, in data set [1] (phase 1 AML and CML patients), the “efficacy signals, hematologic malignancies” value is “declines in peripheral and bone marrow blasts”. Also, the “cardiac effects following the infusion” value in data set [1] (phase 1 patients) was “Moderate tachycardia and PR interval prolongation”. Further, the “efficacy signals, solid tumors” value in data set [1] (phase 1 patients) is “partial responses in colorectal cancer and melanoma”. Also, in data set [1] (phase 1 patients), the “patients with Grade 1-2 infusional reactions” value is reported as 5%. Moreover, in data set [1] (phase 1 patients, unlike geldanamycin-based HSP90 inhibitors), the severe hepatotoxicity result was “has not been observed”. Also, in data set [1] (phase 1 program, solid tumors and refractory hematologic malignancies, one-hour infusion), the dose limiting toxicities entry was “reversible fatigue and diarrhea”.
